From patent US11130769B2 (Prelude Therapeutics Incorporated, priority 2018, dated 2021)

Tests used:
MCL-1 = MCL-1 (Homo sapiens (Human), UniProt Q07820); assay: Cell free Mcl-1:Bim affinity assay (fluorescence polarization competition); type: binding; conditions: 15 nM MCL-1, 5 nM FITC-Bim, 1 hour at room temperature; class symbols; read-out: BIM_Ki
In short: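 Compounds competed with FITC-labelled Bim peptide (5 nM) for MCL-1 (15 nM) in HEPES/NaCl buffer with 1% DMSO, 1 h at room temperature. Fluorescence polarization (535 nm emission) gave % inhibition versus DMSO and positive controls; IC50 from 10-point curves, converted to Ki by the Nikolovska-Coleska equation.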

H929 cells = assay: Cell viability assay (H929 10 FBS); type: cell-based; conditions: Homo sapiens, NCI-H929, 24 hours, read-out: H929_10FBS IC50
In short: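 H929 cells, 4000/well, in RPMI 1640 with 10% FBS, sodium pyruvate, HEPES and glucose were exposed to compound 24 h at 37 °C. Viability read as luminescence after 30-60 min at RT with CellTiter-Glo or ATPlite 1 Step.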

Chain of MCL-1 (Q07820 whole entry): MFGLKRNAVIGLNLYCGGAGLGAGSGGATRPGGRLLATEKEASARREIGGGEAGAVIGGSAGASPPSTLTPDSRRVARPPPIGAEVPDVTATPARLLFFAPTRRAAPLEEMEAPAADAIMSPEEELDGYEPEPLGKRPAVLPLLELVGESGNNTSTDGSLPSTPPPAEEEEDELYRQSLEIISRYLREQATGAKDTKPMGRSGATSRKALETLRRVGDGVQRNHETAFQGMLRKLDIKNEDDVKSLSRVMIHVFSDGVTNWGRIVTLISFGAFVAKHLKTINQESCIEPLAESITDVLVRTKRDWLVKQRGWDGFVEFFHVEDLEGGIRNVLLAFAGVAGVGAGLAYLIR

Row | SMILES | Ki (MCL-1) | IC50 (H929 cells)
1 | CO[C@H]1/C=C/CC[C@@H](C)C(=O)NS(=O)(=O)c2ccc3c(c2)N(C[C@@H]2CC[C@H]21)C[C@@]1(CCCc2cc(Cl)ccc21)CO3 [Example 81, (3R,6R,7S,8E,12R,22S)-6′-Chloro-7-methoxy-12-methyl-15,15-dioxo-spiro[20-oxa-15-thia-1,14-diazatetracyclo[14.7.2.03,6.019,24]pentacosa-8,16(25),17,19(24)-tetraene-22,1′-tetralin]-13-one] | 1 to 100 nM | > 1000 nM
2 | CO[C@H]1/C=C/C[C@H](C)CC(=O)NS(=O)(=O)c2ccc3c(c2)N(C[C@@H]2CC[C@H]21)C[C@@]1(CCCc2cc(Cl)ccc21)CO3 [Example 82, (3R,6R,7S,8E,11S,22S)-6′-Chloro-7-methoxy-11-methyl-15,15-dioxo-spiro[20-oxa-15-thia-1,14-diazatetracyclo[14.7.2.03,6.019,24]pentacosa-8,16(25),17,19(24)-tetraene-22,1′-tetralin]-13-one] | 1 to 100 nM | > 1000 nM
3 | CO[C@H]1/C=C/CCCCC(=O)NS(=O)(=O)c2ccc3c(c2)N(C[C@@H]2CC[C@H]21)C[C@@]1(CCCc2cc(Cl)ccc21)CO3 [Example 83, (3R,6R,7S,8E,23S)-6′-Chloro-7-methoxy-16,16-dioxo-spiro[21-oxa-16-thia-1,15-diazatetracyclo[15.7.2.03,6.020,25]hexacosa-8,17,19,25-tetraene-23,1′-tetralin]-14-one] | 1 to 100 nM | > 1000 nM
4 | CO[C@H]1/C=C/C[C@@H](C)CC(=O)NS(=O)(=O)c2ccc3c(c2)N(C[C@@H]2CC[C@H]21)C[C@@]1(CCCc2cc(Cl)ccc21)CO3 [Example 84, (3R,6R,7S,8E,11R,22S)-6′-Chloro-7-methoxy-11-methyl-15,15-dioxo-spiro[20-oxa-15-thia-1,14-diazatetracyclo[14.7.2.03,6.019,24]pentacosa-8,16(25),17,19(24)-tetraene-22,1′-tetralin]-13-one] | 1 to 100 nM | > 1000 nM
5 | CO[C@H]1/C=C/CC[C@H](C)C(=O)NS(=O)(=O)c2ccc3c(c2)N(C[C@@H]2CC[C@H]21)C[C@@]1(CCCc2cc(Cl)ccc21)CO3 [Example 85, (3R,6R,7S,8E,12S,22S)-6′-Chloro-7-methoxy-12-methyl-15,15-dioxo-spiro[20-oxa-15-thia-1,14-diazatetracyclo[14.7.2.03,6.019,24]pentacosa-8,16(25),17,19(24)-tetraene-22,1′-tetralin]-13-one] | 1 to 100 nM | > 1000 nM
6 | CO[C@@H]1/C=C/CCC2(CCC2)C(=O)NS(=O)(=O)c2ccc3c(c2)N(C[C@@H]2CC[C@H]21)C[C@@]1(CCCc2cc(Cl)ccc21)CO3 [Example 86, (3R,6R,7R,8E,22S)-6′-Chloro-7-methoxy-12,12-(1,3-propylene)-15,15-dioxo-spiro[[20]oxa-15-thia-1,14-diazatetracyclo[14.7.2.03,6.019,24]pentacosa[8,16(25),17,19(24)]tetraene-22,1′-tetralin]-13-one] | 1 to 100 nM | > 1000 nM
7 | COC[C@H]1C(=O)NS(=O)(=O)c2ccc3c(c2)N(C[C@@H]2CC[C@H]2[C@H](O)/C=C/C[C@@H]1C)C[C@@]1(CCCc2cc(Cl)ccc21)CO3 [Example 88, (3R,6R,7R,8E,11S,12S,22S)-6′-Chloro-7-hydroxy-12-(methoxymethyl)-11-methyl-15,15-dioxo-spiro[20-oxa-15-thia-1,14-diazatetracyclo[14.7.2.03,6.019,24]pentacosa-8,16,18,24-tetraene-22,1′-tetralin]-13-one] | < 1 nM | < 1000 nM
8 | CO[C@@H]1/C=C/C[C@H](C)[C@@H](CC(=O)N2CC(F)(F)C2)C(=O)NS(=O)(=O)c2ccc3c(c2)N(C[C@@H]2CC[C@H]21)C[C@@]1(CCCc2cc(Cl)ccc21)CO3 [Example 90, (3R,6R,7R,8E,11S,12R,22S)-6′-Chloro-12-[2-(3,3-difluoroazetidin-1-yl)-2-oxo-ethyl]-7-methoxy-11-methyl-15,15-dioxo-spiro[20-oxa-15-thia-1,14-diazatetracyclo[14.7.2.03,6.019,24]pentacosa-8,16,18,24-tetraene-22,1′-tetralin]-13-one] | < 1 nM | > 1000 nM
9 | CO[C@@H]1/C=C/C[C@H](C)[C@@H](CC(=O)N2CCOCC2)C(=O)NS(=O)(=O)c2ccc3c(c2)N(C[C@@H]2CC[C@H]21)C[C@@]1(CCCc2cc(Cl)ccc21)CO3 [Example 92, (3R,6R,7R,8E,11S,12R,22S)-6′-Chloro-7-methoxy-11-methyl-12-(2-morpholino-2-oxo-ethyl)-15,15-dioxo-spiro[20-oxa-15-thia-1,14-diazatetracyclo[14.7.2.03,6.019,24]pentacosa-8,16,18,24-tetraene-22,1′-tetralin]-13-one] | < 1 nM | < 1000 nM
10 | CO[C@@H]1/C=C/CC[C@@H](CO)C(=O)NS(=O)(=O)c2ccc3c(c2)N(C[C@@H]2CC[C@H]21)C[C@@]1(CCCc2cc(Cl)ccc21)CO3 [Example 95, (3R,6R,7R,8E,12S,22S)-6′-Chloro-12-(hydroxymethyl)-7-methoxy-15,15-dioxo-spiro[20-oxa-15-thia-1,14-diazatetracyclo[14.7.2.03,6.019,24]pentacosa-8,16,18,24-tetraene-22,1′-tetralin]-13-one] | 1 to 100 nM | > 1000 nM
11 | COC[C@@H]1CC/C=C/[C@@H](OC)[C@@H]2CC[C@H]2CN2C[C@@]3(CCCc4cc(Cl)ccc43)COc3ccc(cc32)S(=O)(=O)NC1=O [Example 96, (3R,6R,7R,8E,12S,22S)-6′-Chloro-12-(methoxymethyl)-7-methoxy-15,15-dioxo-spiro[20-oxa-15-thia-1,14-diazatetracyclo[14.7.2.03,6.019,24]pentacosa-8,16,18,24-tetraene-22,1′-tetralin]-13-one] | < 1 nM | > 1000 nM
12 | O=C1Cc2cccc(c2)S(=O)(=O)C[C@@H]2CC[C@H]2CN2C[C@@]3(CCCc4cc(Cl)ccc43)COc3ccc(cc32)S(=O)(=O)N1 [Example 98, (3R,6R,24S)-6′-Chloro-8,8,17,17-tetraoxo-spiro[22-oxa-8,17-dithia-1,16-diazapentacyclo[16.7.2.19,13.03,6.021,26]octacosa-9(28),10,12,18(27),19,21(26)-hexaene-24,1′-tetralin]-15-one] | 1 to 100 nM | > 1000 nM

The remaining lines, values ahead:

Row | Ki (MCL-1) | IC50 (H929 cells) | SMILES
13 | < 1 nM | < 1000 nM | COC[C@H]1C(=O)NS(=O)(=O)c2ccc3c(c2)N(C[C@@H]2CC[C@H]2[C@H](OC)/C=C/C[C@@H]1C)C[C@@]1(CCCc2cc(Cl)ccc21)CO3 [Example 87, (3R,6R,7R,8E,11S,12S,22S)-6′-Chloro-7-methoxy-12-(methoxymethyl)-11-methyl-15,15-dioxo-spiro[20-oxa-15-thia-1,14-diazatetracyclo[14.7.2.03,6.019,24]pentacosa-8,16,18,24-tetraene-22,1′-tetralin]-13-one]
14 | 1 to 100 nM | > 1000 nM | COCC[C@H]1C(=O)NS(=O)(=O)c2ccc3c(c2)N(C[C@@H]2CC[C@H]2[C@H](OC)/C=C/C[C@@H]1C)C[C@@]1(CCCc2cc(Cl)ccc21)CO3 [Example 89, (3R,6R,7R,8E,11S,12R,22S)-6′-Chloro-7-methoxy-12-(2-methoxyethyl)-1-methyl-15,15-dioxo-spiro[20-oxa-15-thia-1,14-diazatetracyclo[14.7.2.03,6.019,24]pentacosa-8,16,18,24-tetraene-22,1′-tetralin]-13-one]
15 | 1 to 100 nM | > 1000 nM | CO[C@@H]1/C=C/C[C@H](C)[C@@H](CC(=O)N(C)C)C(=O)NS(=O)(=O)c2ccc3c(c2)N(C[C@@H]2CC[C@H]21)C[C@@]1(CCCc2cc(Cl)ccc21)CO3 [Example 91, 2-[(3R,6R,7R,8E,11S,12R,22S)-6′-Chloro-7-methoxy-11-methyl-13,15,15-trioxo-spiro[20-oxa-15-thia-1,14-diazatetracyclo[14.7.2.03,6.019,24]pentacosa-8,16,18,24-tetraene-22,1′-tetralin]-12-yl]-N,N-dimethyl-acetamide]
16 | 1 to 100 nM | > 1000 nM | COCCOC[C@H]1C(=O)NS(=O)(=O)c2ccc3c(c2)N(C[C@@H]2CC[C@H]2[C@H](OC)/C=C/C[C@@H]1C)C[C@@]1(CCCc2cc(Cl)ccc21)CO3 [Example 93, (3R,6R,7R,8E,11S,12S,22S)-6′-chloro-7-methoxy-12-(2-methoxyethoxymethyl)-11-methyl-15,15-dioxo-spiro[20-oxa-15-thia-1,14-diazatetracyclo[14.7.2.03,6.019,24]pentacosa-8,16,18,24-tetraene-22,1′-tetralin]-13-one]
17 | < 1 nM | > 1000 nM | CO[C@@H]1/C=C/C[C@H](C)[C@@H](CO)C(=O)NS(=O)(=O)c2ccc3c(c2)N(C[C@@H]2CC[C@H]21)C[C@@]1(CCCc2cc(Cl)ccc21)CO3 [Example 94, (3R,6R,7R,8E,11S,12S,22S)-6′-Chloro-12-(hydroxymethyl)-7-methoxy-11-methyl-15,15-dioxo-spiro[20-oxa-15-thia-1,14-diazatetracyclo[14.7.2.03,6.019,24]pentacosa-8,16,18,24-tetraene-22,1′-tetralin]-13-one]
18 | < 1 nM | > 1000 nM | COCCOC[C@@H]1CC/C=C/[C@@H](OC)[C@@H]2CC[C@H]2CN2C[C@@]3(CCCc4cc(Cl)ccc43)COc3ccc(cc32)S(=O)(=O)NC1=O [Example 97, (3R,6R,7R,8E,12S,22S)-6′-Chloro-12-((2-methoxyethoxy)methyl)-7-methoxy-15,15-dioxo-spiro[20-oxa-15-thia-1,14-diazatetracyclo[14.7.2.03,6.019,24]pentacosa-8,16,18,24-tetraene-22,1′-tetralin]-13-one]
